Earlier results in article PMC6311893, “Computational prediction of plasma protein binding of cyclic peptides from small molecule experimental data using sparse modeling techniques” (BMC Bioinformatics, 2018).
Counter-ions that a name gives are not always drawn. Like-named read-outs stand apart in the source and are kept apart here.

Tested on: plasma protein
Settings: cited from earlier work
[1] = fraction bound to plasma protein, small molecule dataset, sheet 1-SM (Set Dte = test, Dtr = training), ref Ingle et al.
[2] = fraction bound to plasma protein, small molecule dataset, sheet 1-SM, ref Ingle et al.
[3] = fraction bound to plasma protein, small molecule dataset, sheet 1-SM, Set Dtr, ref Ingle et al.

[H]/N=C(\N/C(=N/[H])Nc1ccc(Cl)cc1)NC(C)C [chlorguanide]
PPB (fb) [1]: 0.85

Cc1noc(NS(=O)(=O)c2ccc(N)cc2)c1C [Sulfisoxazole]
PPB (fb) [2]: 0.92

CN(CCCN1c2ccccc2CCc2ccccc21)CC(=O)c1ccc(Cl)cc1 [lofepramine]
PPB (fb) [2]: 0.99

Cc1cccc(N2CC(CO)OC2=O)c1 (stereo not drawn) [Toloxatone]
PPB (fb) (plasma): 0.5

C[C@@H](NCCCc1cccc(C(F)(F)F)c1)c1cccc2ccccc12 [Cinacalcet hydrochloride]
PPB (fb) [1]: 0.95

O=C(O)COc1ccc(C(=O)c2cccs2)c(Cl)c1Cl [tienilic acid]
PPB (fb) [2]: 0.99

Cc1ccc(S(=O)(=O)NC(=O)N[C@H]2[C@H]3CC[C@@](C)([C@H]2O)C3(C)C)cc1 [glibornuride]
PPB (fb) [2]: 0.95

CO/N=C(\C(=O)N[C@@H]1C(=O)N2C(C(=O)O)=C(COC(N)=O)CS[C@H]12)c1ccco1 [Cefuroxime]
PPB (fb) [3]: 0.32

CCN(CC)CCOC(=O)c1ccc(N)cc1 [procaine]
PPB (fb) [2]: 0.06

Oc1ccc(C2CNCCc3c2cc(O)c(O)c3Cl)cc1 (stereo not drawn) [fenoldopam]
PPB (fb) [2]: 0.88

O=C(O)c1ccccc1O [salicylate]
PPB (fb) [2]: 0.85

O=C1CC[C@@]2(O)[C@H]3Cc4ccc(O)c5c4[C@@]2(CCN3CC2CC2)[C@H]1O5 [Naltrexone]
PPB (fb) [3]: 0.2

O=C1Cc2cc(CCN3CCN(c4nsc5ccccc45)CC3)c(Cl)cc2N1 [Ziprasidone]
PPB (fb) [2]: 0.99

CC(C(=O)O)c1ccc2c(c1)[nH]c1ccc(Cl)cc12 (stereo not drawn) [Carprofen]
PPB (fb) [1]: 0.99

C=CCNc1nc(NCC=C)nc(N2CCN(C(c3ccc(F)cc3)c3ccc(F)cc3)CC2)n1 [almitrine]
PPB (fb) [1]: 0.99

C[C@]12COC(=O)C[C@@H]1CC[C@@H]1[C@@H]2CC[C@@]2(C)[C@H]1CC[C@]2(C)O [oxandrolone]
PPB (fb) (plasma): 0.95

salvianolic acid B
PPB (fb) (plasma): 0.75

COc1ccc(C[C@@H]2c3cc(OC)c(OC)cc3CC[N@+]2(C)CCC(=O)OCCCCCOC(=O)CC[N@@+]2(C)CCc3cc(OC)c(OC)cc3[C@H]2Cc2ccc(OC)c(OC)c2)cc1OC [Cisatracurium]
PPB (fb) [3]: 0.38

COc1cc(NS(=O)(=O)c2ccc(N)cc2)nc(OC)n1 [sulfadimethoxine]
PPB (fb) [2]: 0.95

CC1(C)SC2C(NC(=O)C(Br)c3ccccc3)C(=O)N2C1C(=O)O (stereo not drawn) [penicillin21]
PPB (fb) [1]: 0.82

O=C(O)Cc1ccccc1Oc1ccc(Cl)cc1Cl [fenclofenac]
PPB (fb) [2]: 0.99

trichloroethanol
PPB (fb) (plasma): 0.35

CC(C)(C)NCC(O)COc1cccc2c1SCCC2 (stereo not drawn) [tertatolol]
PPB (fb) [1]: 0.95

COc1ccccc1N1CCN(CCCNc2cc(=O)n(C)c(=O)n2C)CC1 [urapidil]
PPB (fb) [3]: 0.8

CCOC(=O)c1ncn2c1CN(C)C(=O)c1cc(F)ccc1-2 [Flumazenil]
PPB (fb) [3]: 0.46

Nc1ccc(S(=O)(=O)Nc2nccs2)cc1 [sulfathiazole]
PPB (fb) [2]: 0.67

CC(=O)Nc1c(I)c(C(=O)O)c(I)c(N(C)C(C)=O)c1I [Metrizoate]
PPB (fb) [3]: 0

Nc1nc(=O)[nH]cc1F [Flucytosine]
PPB (fb) [1]: 0.02

N[C@@H]1CON=C1O [cycloserine]
PPB (fb) [1]: 0.2

CC(C)Cc1ccc(C(C)C(=O)NC(C)C(=O)O)cc1 (stereo not drawn) [JMC_09]
PPB (fb) [1]: 0.96

CC(=O)OCC1=C(C(=O)O)N2C(=O)[C@@H](NC(=O)CSc3ccncc3)[C@H]2SC1 [Cephapirin]
PPB (fb) [3]: 0.53

Nc1ncnc2c1ncn2CCOCP(=O)(O)O [Adefovir]
PPB (fb) [3]: 0.04

CC1(C)S[C@@H]2[C@H](NC(=O)[C@H](C(=O)O)c3ccsc3)C(=O)N2[C@H]1C(=O)O [Ticarcillin]
PPB (fb) [2]: 0.51

O=C1CN=C(c2ccccc2)c2cc(Cl)ccc2N1CC1CC1 [prazepam]
PPB (fb) (plasma): 0.97

O=C1[C@H](CC[C@H](O)c2ccc(F)cc2)[C@@H](c2ccc(O)cc2)N1c1ccc(F)cc1 [Ezetimibe]
PPB (fb) [2]: 0.9

CC(Cc1ccc(C(C)C(=O)NS(C)(=O)=O)cc1)C(=O)O (stereo not drawn) [JMC_10]
PPB (fb) [2]: 0.7

COc1c(C)c2c(c(O)c1C/C=C(\C)CCC(=O)OCCN1CCOCC1)C(=O)OC2 [Mycophenolate mofetil]
PPB (fb) [2]: 0.97

O=C(O)c1cn(-c2ccc(C(F)(F)F)cc2)c2cc(N3CCNCC3)c(F)cc2c1=O [3c(p-CF3)]
PPB (fb) [1]: 0.42

CCC[S+]([O-])c1ccc2[nH]c(NC(=O)OC)nc2c1 (stereo not drawn) [albendazole sulfoxide]
PPB (fb) (plasma): 0.7

CCCc1cc(=O)[nH]c(=S)[nH]1 [Propylthiouracil]
PPB (fb) [1]: 0.81

Cefodizime
PPB (fb) (plasma): 0.81

O=C(O)c1cc(-c2ccc(F)cc2F)ccc1O [Diflunisal]
PPB (fb) [3]: 0.99

OCCN1CCN(CCCN2c3ccccc3Sc3ccc(Cl)cc32)CC1 [Perphenazine]
PPB (fb) [3]: 0.92

CCOC(=O)C(C)(C)Oc1ccc(Cl)cc1 [clofibrate]
PPB (fb) [1]: 0.96

CC(=O)/N=c1/sc(S(N)(=O)=O)nn1C [methazolamide]
PPB (fb) [2]: 0.55

CC(C)(C)NC(=O)[C@H]1CC[C@H]2[C@@H]3CC=C4C=C(C(=O)O)CC[C@]4(C)[C@H]3CC[C@]12C [Epristeride]
PPB (fb) [3]: 0.97

CN[C@@H]1[C@H](O)[C@H](NC)[C@H]2O[C@@]3(O)C(=O)C[C@@H](C)O[C@H]3O[C@@H]2[C@H]1O [spectinomycin]
PPB (fb) [2]: 0.05

Cc1[nH]cnc1CN1CCc2c(c3ccccc3n2C)C1=O [Alosetron]
PPB (fb) [3]: 0.72

phenprocoumon
PPB (fb) (plasma): 0.99

CC(=O)O[C@H]1C[C@H](O[C@H]2[C@@H](O)C[C@H](O[C@H]3[C@@H](O)C[C@H](O[C@H]4CC[C@@]5(C)[C@H](CC[C@@H]6[C@@H]5C[C@@H](O)[C@]5(C)[C@@H](C7=CC(=O)OC7)CC[C@]65O)C4)O[C@@H]3C)O[C@@H]2C)O[C@H](C)[C@H]1O [alpha-acetyldigoxin]
PPB (fb) (plasma): 0.25

Cc1ccc(S(=O)(=O)NC(=O)NN2CCCCCC2)cc1 [tolazamide]
PPB (fb) [3]: 0.97

Cc1nc2ccc(CN(C)c3ccc(C(=O)N[C@@H](CCC(=O)O)C(=O)O)s3)cc2c(=O)[nH]1 [raltitrexed]
PPB (fb) [2]: 0.93

C=CCC1(C(C)CCC)C(=O)NC(=O)NC1=O (stereo not drawn) [quinalbarbitone]
PPB (fb) (plasma): 0.5

CC1(C)SC2C(NC(=O)C(N)c3ccc(Cl)c(Cl)c3)C(=O)N2C1C(=O)O (stereo not drawn) [penicillin29]
PPB (fb) [1]: 0.82

C=CCOc1ccc(CC(=O)O)cc1Cl [alclofenac]
PPB (fb) [1]: 0.99

O=C(C1CCCCC1)N1CC(=O)N2CCc3ccccc3C2C1 (stereo not drawn) [praziquantel]
PPB (fb) [2]: 0.83

CCCCCN(C)CCC(O)(P(=O)(O)O)P(=O)(O)O [Ibandronic Acid (Ibandronate)]
PPB (fb) [1]: 0.85

C[C@@H](c1ncncc1F)[C@](O)(Cn1cncn1)c1ccc(F)cc1F [Voriconazole]
PPB (fb) [2]: 0.58

CCn1cc(C(=O)O)c(=O)c2cc(F)c(N3CCNC(C)C3)c(F)c21 (stereo not drawn) [lomefloxacin]
PPB (fb) [1]: 0.12

CN[C@@H](C)[C@@H](O)c1ccccc1 [pseudoephedrine]
PPB (fb) (plasma): 0

CCCC(CC)C(CCC)C(=O)NC1C(=O)N2C1SC(C)(C)C2C(=O)O (stereo not drawn) [penicillin4]
PPB (fb) [2]: 0.93

CN1CC[C@]23c4c5ccc(OCCN6CCOCC6)c4O[C@H]2[C@@H](O)C=C[C@H]3[C@H]1C5 [pholcodine]
PPB (fb) (plasma): 0.24

NC(C(=O)NC1C(=O)N2C(C(=O)O)=C(Cl)CCC12)c1ccccc1 (stereo not drawn) [loracarbef]
PPB (fb) [1]: 0.25

CO[C@H]1C[C@@H]2CC[C@@H](C)[C@@](O)(O2)C(=O)C(=O)N2CCCC[C@H]2C(=O)O[C@H]([C@H](C)C[C@@H]2CC[C@@H](OCCO)[C@H](OC)C2)CC(=O)[C@H](C)/C=C(\C)[C@@H](O)[C@@H](OC)C(=O)[C@H](C)C[C@H](C)/C=C/C=C/C=C/1C [everolimus]
PPB (fb) [2]: 0.74

CC(=O)NC[C@H]1CN(c2ccc(N3CCOCC3)c(F)c2)C(=O)O1 [Linezolid]
PPB (fb) [3]: 0.31

Cc1ccccc1C(OCCN(C)C)c1ccccc1 (stereo not drawn) [orphenadrine]
PPB (fb) [2]: 0.95

CCC1(C)CC(=O)NC1=O (stereo not drawn) [ethosuximide]
PPB (fb) [2]: 0

C[C@@H]1CC(=O)NN=C1c1ccc(NN=C(C#N)C#N)cc1 [Levosimendan]
PPB (fb) [3]: 0.98

CC1(C)SC2C(NC(=O)C(N)c3cccc(O)c3)C(=O)N2C1C(=O)O (stereo not drawn) [penicillin32]
PPB (fb) [2]: 0.17

C#C[C@]1(O)CC[C@H]2[C@@H]3CCc4cc(OC)ccc4[C@H]3CC[C@@]21C [mestranol]
PPB (fb) [2]: 0.98

NCCC(O)(P(=O)(O)O)P(=O)(O)O [pamidronic acid]
PPB (fb) [1]: 0.14

CN[C@@H]1CCc2[nH]c3ccc(C(N)=O)cc3c2C1 [Frovatriptan]
PPB (fb) [1]: 0.15

C=C1CC[C@@]2(O)[C@H]3Cc4ccc(O)c5c4[C@@]2(CCN3CC2CC2)[C@H]1O5 [Nalmefene]
PPB (fb) [3]: 0.36

Cc1cc(C(=O)NCCc2ccc(S(=O)(=O)NC(=O)NN3CCCCCC3)cc2)no1 [glisoxepide]
PPB (fb) [2]: 0.93

CC(C)NCC(O)c1ccc(NS(C)(=O)=O)cc1 (stereo not drawn) [Sotalol]
PPB (fb) [2]: 0.28

CC(=O)[C@H]1CC[C@H]2[C@@H]3C=CC4=CC(=O)CC[C@@]4(C)[C@@H]3CC[C@]12C [dydrogesterone]
PPB (fb) (plasma): 0.97

COc1cccc2c1C(=O)c1c(O)c3c(c(O)c1C2=O)C[C@@](O)(C(=O)CO)C[C@@H]3O[C@H]1C[C@H](N)[C@H](O)[C@H](C)O1 [Doxorubicin]
PPB (fb) [3]: 0.73

CC/C=C\C/C=C\C/C=C\C/C=C\C/C=C\C/C=C/CCC(=O)O[C@@H](C(=O)O[C@H]1C[C@@]2(O)[C@@H](OC(=O)c3ccccc3)C3[C@](C)(C(=O)[C@H](OC(C)=O)C(=C1C)C2(C)C)[C@@H](O)C[C@H]1OC[C@@]31OC(C)=O)[C@@H](NC(=O)c1ccccc1)c1ccccc1 (stereo partly drawn) [DHA Paclitaxel]
PPB (fb) (plasma): 0.9962

CC1(C)SC2C(NC(=O)COc3ccccc3F)C(=O)N2C1C(=O)O (stereo not drawn) [penicillin52]
PPB (fb) [2]: 0.91

Clc1ccccc1CN1CCc2sccc2C1 [ticlopidine]
PPB (fb) [2]: 0.96

CC(C)OC(=O)OCOP(=O)(CO[C@H](C)Cn1cnc2c(N)ncnc21)OCOC(=O)OC(C)C [tenofovir disoproxil]
PPB (fb) [2]: 0.07
